# In patent US20210061917A1, “METHODS AND COMPOSITIONS FOR TREATING VITILIGO” (INSERM (Institut National de la Santé et de la Recherche …, priority 2018, published 2021):
# T1: CXCR3 (Homo sapiens, UniProt P49682)
# T1 sequence (P49682 1-415 isoform P49682-2): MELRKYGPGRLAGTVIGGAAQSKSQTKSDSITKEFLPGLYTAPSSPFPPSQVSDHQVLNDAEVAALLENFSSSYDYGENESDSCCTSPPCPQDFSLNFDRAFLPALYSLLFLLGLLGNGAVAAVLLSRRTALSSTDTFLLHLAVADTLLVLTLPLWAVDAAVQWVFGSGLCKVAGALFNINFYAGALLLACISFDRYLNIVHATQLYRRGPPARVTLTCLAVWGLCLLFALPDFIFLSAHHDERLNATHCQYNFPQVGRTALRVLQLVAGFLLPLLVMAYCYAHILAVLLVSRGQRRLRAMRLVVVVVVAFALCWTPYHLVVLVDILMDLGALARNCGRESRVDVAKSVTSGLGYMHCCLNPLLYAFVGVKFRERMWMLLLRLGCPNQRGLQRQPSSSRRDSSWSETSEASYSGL
# B1: CXCL9: recombinant human chemokine (PeproTech), CXCR3 ligand used as stimulus (protein, UniProt Q07325 23-125, looked up)
# C-X-C motif chemokine 9: TPVVRKGRCSCISTNQGTIHLQSLKDLKQFAPSPSCEKIEIIATLKNGVQTCLNPDSADVKELIKKWEKQVSQKKKQKNGKKHQKKKVLKVRKSQRSRQKKTT
# B2: CXCL11: recombinant human chemokine (PeproTech), CXCR3 ligand used as stimulus (protein, UniProt O14625 22-94, looked up)
# C-X-C motif chemokine 11: FPMFKRGRCLCIGPGVKAVKVADIEKASIMYPSNNCDKIEVIITLKENKGQRCLNPKSKQARLIIKKVERKNF
# Assays:
# Format in all cases: cell-based
# [1] = biological target: T1, CXCR3; assay: CXCL10-induced death of vitiligo melanocytes in co-culture with autologous CD3+ T cells, IncuCyte
# From the text: (A) CXCL10-induced death of vitiligo melanocytes in presence or absence of patients own autologous T cells. […] The next day, media was replaced and 3 days later patient's own CD3+ T cell were sorted and added to the melanocytes (n=3) prior to initiation of IncuCyte.
# [2] = biological target: T1, CXCR3; assay: CXCL10-induced melanocyte death, IncuCyte live cell imaging, with CXCR3 antagonist, blocking antibody or siCXCR3; conditions: IFNγ-pretreated (50 ng/ml, 48 hrs) vitiligo melanocytes; AS612568 0.02, 0.2, 2 μM; FIG. 2A
# Procedure: (A) Effect of CXCL10 (5, 20, 100 pg/ml) on cell viability in unstimulated or IFNγ stimulated (50 ng/ml for 48 hrs) melanocytes from vitiligo patients, in presence or absence of CXCR3 antagonist AS612568 (0.02 μM, 0.2 μM or 2 μM) (n=5-8). Cell viability was monitored using lncuCyte® live cell fluorescence imaging system. (B) Effect of siCXCR3 or siC on CXCL10 (100 pg/ml)-induced death of healthy (n=4-8) and vitiligo (n=4) melanocytes. Melanocytes were tracked with CellTracker™ Red CMPTX dye and dead cells tracked with IncuCyte® Cytotox Green reagent. […] Cell viability was monitored using IncuCyte® live cell fluorescence imaging system. […] Results are expressed as mean with SEM, *P<0.05, **P<0.01 and ***P<0.001.
# Melanocytes were plated in 96-well plates (10,000/well) and stimulated with 50 ng/ml IFNγ for 48 hrs prior to transfection with 50 or 80 nM siCXCR3 or siC (SmartPool scramble sequence siRNA, Dharmacon, France) or with 80 nM custom-designed siCXCR3B or siC (ThermoFisher, France) using Lipofectamine® RNAiMAX Reagent (Invitrogen, France) in optiMEM medium (Invitrogen). […] Finally, Incucyte® green Cytotox Reagent (100 nM, Essen Bioscience, Michigan, USA) was added to all wells and melanocyte death monitored in real-time using IncuCyte® Zoom live-cell imaging system (Essen Biosciences) which was inside a 37° C. humidified CO2 incubator scanning the plate every 2 hrs. […]
# [3] = system: human melanocytes; assay: Melanocyte death after chemokine stimulation, IncuCyte live cell imaging; conditions: for melanocyte death: chemokine 100 pg/ml, healthy and vitiligo melanocytes, 24 hrs, FIG. 2C
# Procedure: (A) Effect of CXCL10 (5, 20, 100 pg/ml) on cell viability in unstimulated or IFNγ stimulated (50 ng/ml for 48 hrs) melanocytes from vitiligo patients, in presence or absence of CXCR3 antagonist AS612568 (0.02 μM, 0.2 μM or 2 μM) (n=5-8). Cell viability was monitored using lncuCyte® live cell fluorescence imaging system. (B) Effect of siCXCR3 or siC on CXCL10 (100 pg/ml)-induced death of healthy (n=4-8) and vitiligo (n=4) melanocytes. Melanocytes were tracked with CellTracker™ Red CMPTX dye and dead cells tracked with IncuCyte® Cytotox Green reagent. (C) Healthy and vitiligo melanocytes (n=6-12) were transfected with custom-designed siCXCR3B or siC and melanocyte death shown at 24 hrs following CXCL10, CXCL9 or CXCL11 (100 pg/ml) stimulation. (D) Effect of CXCL10 (100 pg/ml) on cell viability in untreated or IFNγ pretreated (50 ng/ml for 48 hrs) melanocytes from vitiligo patients, in presence or absence of CXCR3 blocking antibody (MAB-160, R&D Systems, USA at 1 or 10 μg/ml) (n=3). Cell viability was monitored using IncuCyte® live cell fluorescence imaging system. Melanocytes were tracked with CellTracker™ Red CMPTX dye and dead cells tracked with IncuCyte® Cytotox Green reagent. Results are expressed as mean with SEM, *P<0.05, **P<0.01 and ***P<0.001.
# Melanocytes were plated in 96-well plates (10,000/well) and stimulated with 50 ng/ml IFNγ for 48 hrs prior to transfection with 50 or 80 nM siCXCR3 or siC (SmartPool scramble sequence siRNA, Dharmacon, France) or with 80 nM custom-designed siCXCR3B or siC (ThermoFisher, France) using Lipofectamine® RNAiMAX Reagent (Invitrogen, France) in optiMEM medium (Invitrogen). […] Finally, Incucyte® green Cytotox Reagent (100 nM, Essen Bioscience, Michigan, USA) was added to all wells and melanocyte death monitored in real-time using IncuCyte® Zoom live-cell imaging system (Essen Biosciences) which was inside a 37° C. humidified CO2 incubator scanning the plate every 2 hrs. Multiple images were collected per well and quantification of dead melanocytes (yellow co-localised cells) was analysed using the integrated Zoom® software. […]
molecule,measurement,setting,value
"N#Cc1ccc(S(=O)(=O)N(Cc2ccc(-c3nnn[nH]3)c(F)c2)Cc2ccccc2F)cc1 [AS612568, 4-cyano-N-(3-fluoro-4-(1H-tetrazol-5-yl)benzyl)-N-(2-fluorobenzyl)benzenesulfonamide]",augmentation of T cell number,"[1]; AS612568 2 μM, CD3+ T cells in IncuCyte co-culture, P=0.04, FIG. 3B",prevented
same,potentiating effect of T cells on CXCL10-induced melanocyte death,"[1]; AS612568 2 μM, IFNγ-pretreated vitiligo melanocytes plus autologous CD3+ T cells, P=0.008, FIG. 3A",prevented
same,T cell proliferation,"[1]; AS612568, T cells co-cultured with IFNγ-primed, CXCL10-stimulated melanocytes, data not shown",prevented
same,melanocyte death induced by CXCL10,[2],inhibited melanocyte death induced by CXCL10 in a dose-dependent manner
"CXCL10: recombinant human chemokine (PeproTech), CXCR3 ligand used as stimulus",melanocyte death compared to non-stimulated melanocytes,"[3]; vitiligo melanocytes, IFNγ pre-treated, CXCL10 5, 20, 100 pg/ml, dose-dependent, P=0.006, FIG. 2A",significantly increased melanocyte death
B1,melanocyte death,[3],induced a significant melanocyte death
B2,melanocyte death,[3],induced a significant melanocyte death
